The text below walks through data of ChEMBL document CHEMBL4602648, “The bioisosteric modification of pyrazinamide derivatives led to potent antitubercular agents: Synthesis via click approach and molecular docking of pyrazine-1,2,3-triazoles” (Bioorg Med Chem Lett, 2020).

The subject of data set [1] is Pseudomonas aeruginosa. Put plainly: Antibacterial activity against Pseudomonas aeruginosa by dilution assay. It is filed as functional.
The test system of data set [2] is Vero. Description: Cytotoxicity against African green monkey Vero cells assessed as reduction in cell viability incubated for 48 hrs by MTT assay. In kind it is cell-based. Conditions: Chlorocebus sabaeus.
Data set [3] concerns Escherichia coli. Put plainly: Antibacterial activity against Escherichia coli by dilution assay. In kind it is functional.
Data set [4] in a line: Cytotoxicity against African green monkey Vero cells assessed as growth inhibition at 62.5 ug/ml after 48 hrs by MTT assay relative to control. In kind it is cell-based. As to conditions: chlorocebus sabaeus, read-out: GI.
In data set [5] the test system is Staphylococcus aureus. Description: Antibacterial activity against Staphylococcus aureus by dilution assay. It is filed as functional.
Data set [6] has as its target T1, Enoyl-[acyl-carrier-protein] reductase [NADH] (Mycobacterium tuberculosis) (UniProt P9WGR1).
T1 sequence (whole entry): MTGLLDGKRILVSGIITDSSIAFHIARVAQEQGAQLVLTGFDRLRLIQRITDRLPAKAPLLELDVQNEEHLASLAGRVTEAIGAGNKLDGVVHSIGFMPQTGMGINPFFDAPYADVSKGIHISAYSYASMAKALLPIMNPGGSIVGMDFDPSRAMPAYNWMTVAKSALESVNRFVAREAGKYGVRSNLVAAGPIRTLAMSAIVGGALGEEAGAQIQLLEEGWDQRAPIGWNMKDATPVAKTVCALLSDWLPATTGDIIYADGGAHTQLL
Put plainly: Inhibition of Mycobacterium tuberculosis H37Rv ATCC 27294 InhA assessed as bacterial growth inhibition after 5 days by microplate alamar blue assay.

Data set [7] is described as follows: Selectivity index, ratio of IC50 for cytotoxicity against African green monkey Vero cells to MIC for antitubercular activity against Mycobacterium tuberculosis H37Rv ATCC 27294. As to conditions: read-out: Selectivity Index. In kind it is toxicity, cell-based.

In brackets after ≈: the same amount, converted by molar mass.

`O=C(NCc1cn(Cc2ccc(C(F)(F)F)cc2)nn1)c1cccnc1`: the MIC in data set [1] is 12.5 µg/mL (≈ 34.6 µM); in data set [3] it was 6.25 µg/mL (≈ 17.3 µM); in data set [5] it was 12.5 µg/mL (≈ 34.6 µM); in data set [6], 4.31 µM (≈ 1.56 µg/mL). In addition, in data set [2], the IC50 was 336 µg/mL (≈ 931 µM). Moreover, in data set [4], the inhibition at 48 h, 62.5 ug/ml was determined as 7.42%. Besides, in data set [7], the selectivity ratio was determined as 216.

As for `N#Cc1ccc(Cn2cc(CNC(=O)c3cnccn3)nn2)cc1`, the MIC was 6.25 µg/mL (≈ 19.6 µM) in data set [1], 6.25 µg/mL (≈ 19.6 µM) in data set [3], 6.25 µg/mL (≈ 19.6 µM) in data set [5] and 4.88 µM (≈ 1.56 µg/mL) in data set [6]. Besides, the IC50 in data set [2] turned out to be 533 µg/mL (≈ 1670 µM). Also, in data set [4], the inhibition at 48 h, 62.5 ug/ml turned out to be 12.3%. Besides, the selectivity ratio in data set [7] turned out to be 342.

For the compound `O=C(NCc1cn(Cc2ccc([N+](=O)[O-])cc2)nn1)c1cccnc1`, the MIC was 6.25 µg/mL (≈ 18.5 µM) in data set [1], 12.5 µg/mL (≈ 36.9 µM) in data set [3], 6.25 µg/mL (≈ 18.5 µM) in data set [5] and 4.61 µM (≈ 1.56 µg/mL) in data set [6]. Besides, the IC50 in data set [2] worked out at 465 µg/mL (≈ 1380 µM). In addition, in data set [4], the inhibition at 48 h, 62.5 ug/ml was 7.08%. In data set [7], the selectivity ratio is 298.
